For one test, the target named is T1, human factor Xa (Homo sapiens, UniProt P00742).
T1 construct: purchased Enzyme Research Laboratories
T1 sequence (P00742 235-488 limits assumed): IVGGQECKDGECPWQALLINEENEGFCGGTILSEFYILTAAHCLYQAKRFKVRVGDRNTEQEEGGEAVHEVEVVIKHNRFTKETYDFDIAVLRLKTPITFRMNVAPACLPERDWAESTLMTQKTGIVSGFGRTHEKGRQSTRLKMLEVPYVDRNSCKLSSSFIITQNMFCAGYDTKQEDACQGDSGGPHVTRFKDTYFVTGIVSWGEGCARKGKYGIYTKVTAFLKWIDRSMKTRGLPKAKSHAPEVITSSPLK
T1 sequence (P00742 41-179 partner limits assumed): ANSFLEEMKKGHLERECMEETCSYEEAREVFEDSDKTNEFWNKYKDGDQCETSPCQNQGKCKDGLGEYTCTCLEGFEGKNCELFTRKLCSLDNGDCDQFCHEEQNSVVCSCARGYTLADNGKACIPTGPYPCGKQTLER
The test is described as follows: Determination of Factor Xa IC50 (cleavage of fluorogenic substrate F-S2765). It is filed as biochemical. Particulars: 3 pM human factor Xa; read-out: FXa 3 pM IC50. As to the method:
The ability of compounds to act as inhibitors of human factor Xa catalytic activity was assessed by determination of that concentration of test substance that inhibited by 50% (IC50) the ability of human factor Xa to cleave the fluorogenic substrate F-S2765 (N-α-Z-D-Arg-Gly-Arg-pNA HCl, California Peptide Research). […] The IC50 was determined at 3 pM and/or 30 pM concentrations of human factor Xa (Enzyme Research Laboratories). These concentrations were achieved by diluting a stock solution of human factor Xa in the appropriate amount of buffer containing 10 mM HEPES, 150 mM NaCl, and 0.1% BSA at pH 7.4 (HBSA buffer). Accordingly, 73 μL of the factor Xa/buffer solution was added to 2.5 μL of DMSO-reconstituted compound and incubated for 55 minutes at room temperature. After warming to 37° C. for am additional 5 minutes, 50 μL of rewarmed substrate was added and the IC50 determined by monitoring the increase in absorbance at 390 nm excitation/460 nm emission (455 nm cutoff) in a fluorometric plate reader or 30 minutes.
Usually IC50 stands for the point on the concentration scale where inhibition reaches its midpoint. For `CS(=O)(=O)c1ccccc1-c1ccc(NC(=O)C2(NC(=O)Nc3ccc(Cl)cc3)CC2)cc1` [Example 2, 1-[3-(4-Chloro-phenyl)-ureido]-cyclopropanecarboxylic acid (2′-methanesulfonyl-biphenyl-4-yl)-amide], the IC50 was 33 nM.

With `CS(=O)(=O)c1ccccc1-c1ccc(NC(=O)C2(NC(=O)Nc3ccc(Cl)cc3)CC2)c(F)c1` [Example 3, 1-[3-(4-Chloro-phenyl)-ureido]-cyclopropanecarboxylic acid (3-fluoro-2′-methanesulfonyl-biphenyl-4-yl)-amide], the IC50 came to 22 nM. For `CC(C)(NC(=O)Nc1ccc(Cl)cc1)C(=O)Nc1ccc(-c2ccccc2S(C)(=O)=O)cc1F` [Example 7, 2-[3-(4-Chloro-phenyl)-ureido]-N-(3-fluoro-2′-methanesulfonyl-biphenyl-4-yl)-2-methyl-propionamide], the half-inhibitory concentration (IC50) stood at 20 nM. Take `CS(=O)(=O)c1ccccc1-c1ccc(NC(=O)C2(NC(=O)Nc3ccc(Cl)cc3)CCCCC2)cc1` [Example 10, 1-[3-(4-Chloro-phenyl)-ureido]-cyclohexanecarboxylic acid (2′-methanesulfonyl-biphenyl-4-yl)-amide]: the IC50 was found to be 16 nM.

Staying with this test, now noted: 30 pM human factor Xa; compound @ 1 μM.
For the compound `CN(C(=O)NCC(=O)Nc1ccc(-c2ccccc2S(C)(=O)=O)cc1F)c1ccc(Cl)cc1` [Example 13, 2-[3-(4-Chloro-phenyl)-3-methyl-ureido]-N-(3-fluoro-2′-methanesulfonyl-biphenyl-4-yl)-acetamide], the “FxXa 30 pM, % @ 1 μM” value stood at 17% @ 1 μM. Still for that read-out and setting: the result for `CN(CC(=O)Nc1ccc(-c2ccccc2S(C)(=O)=O)cc1F)C(=O)N(C)c1ccc(Cl)cc1` [Example 14, 2-[3-(4-Chloro-phenyl)-1,3-dimethyl-ureido]-N-(3-fluoro-2′-methanesulfonyl-biphenyl-4-yl)-acetamide] reads 18% @ 1 μM.

The test is the same for the next values; noted with them: 30 pM human factor Xa; read-out: FxXa 30 pM IC50.
Turning to `CS(=O)(=O)c1ccccc1-c1ccc(NC(=O)C2(NC(=O)Nc3ccc(Cl)cn3)CC2)c(F)c1` [Example 4, 1-[3-(5-Chloro-pyridin-2-yl)-ureido]-cyclopropanecarboxylic acid (3-fluoro-2′-methanesulfonyl-biphenyl-4-yl)-amide], the half-maximal inhibitory concentration (IC50) amounted to 255 nM. `NS(=O)(=O)c1ccccc1-c1ccc(NC(=O)C2(NC(=O)Nc3ccc(Cl)cc3)CC2)c(F)c1` [Example 5, 1-[3-(4-Chloro-phenyl)-ureido]-cyclopropanecarboxylic acid (3-fluoro-2′-sulfamoyl-biphenyl-4-yl)-amide]: the half-inhibitory concentration (IC50) stood at 36 nM. Turning to `NS(=O)(=O)c1ccccc1-c1ccc(NC(=O)C2(NC(=O)Nc3ccc(Cl)cn3)CC2)c(F)c1` [Example 6, 1-[3-(5-Chloro-pyridin-2-yl)-ureido]-cyclopropanecarboxylic acid (3-fluoro-2′-sulfamoyl-biphenyl-4-yl)-amide], the half-inhibitory concentration (IC50) came to 192 nM. Same read-out and setting: as for `CC(C)(NC(=O)Nc1ccc(Cl)cn1)C(=O)Nc1ccc(-c2ccccc2S(C)(=O)=O)cc1F` [Example 8, 2-[3-(5-Chloro-pyridin-2-yl)-ureido]-N-(3-fluoro-2′-methanesulfonyl-biphenyl-4-yl)-2-methyl-propionamide], the figure is 287 nM; as for `CC(C)(NC(=O)Nc1ccc(Cl)cc1)C(=O)Nc1ccc(-c2ccccc2S(N)(=O)=O)cc1F` [Example 9], 44 nM; as for `NS(=O)(=O)c1ccccc1-c1ccc(NC(=O)C2(NC(=O)Nc3ccc(Cl)cc3)CC=CC2)c(F)c1` [Example 11, 1-[3-(4-Chloro-phenyl)-ureido]-cyclopent-3-enecarboxylic acid (3-fluoro-2′-sulfamoyl-biphenyl-4-yl)-amide], 66 nM. On to `CN(CC(=O)Nc1ccc(-c2ccccc2S(C)(=O)=O)cc1F)C(=O)Nc1ccc(Cl)cc1` [Example 12, 2-[3-(4-Chloro-phenyl)-1-methyl-ureido]-N-(3-fluoro-2′-methanesulfonyl-biphenyl-4-yl)-acetamide], for which the IC50 was found to be 20 nM.
